Laboratory results taken from patent publication US10087142B2, “Azetidine derivatives useful as modulators of cortical cathecolaminergic neurotransmission” (Integrative Research Laboratories Sweden AB, priority 2015, dated 2018).
Counter-ions that a name gives are not always drawn. Like-named read-outs stand apart in the source and are kept apart here. Marks after values point to notes of the source that are not given here.

Key:
[1] = tested on: non-pre-treated Sprague-Dawley rats; experiment: Locomotor activity in drug-naïve rats (behaviour test); assay type: in vivo, rat; details: recorded 60 minutes, n = 5
Procedure: The effect of compounds in the present disclosure on locomotor activity in drug-naïve rats was also investigated. The animals were placed in the motility meters immediately after drug administration and locomotor activity was recorded for 60 minutes (counts/60 min±SEM). The results are presented as percent of control.
Behavioural activity was measured using eight Digiscan activity monitors (RXYZM (16) TAO, Omnitech Electronics, Columbus, Ohio, USA), connected to an Omnitech Digiscan analyzer and an Apple Macintosh computer equipped with a digital interface board (NB DIO-24, National Instruments, USA). Each activity monitor consisted of a quadratic metal frame (W×L=40 cm×40 cm) equipped with photo beam sensors. During measurements of behavioural activity, a rat was put in a transparent acrylic cage (W×L×H, 40×40×30 cm) which in turn was placed in the activity monitor. Each activity monitor was equipped with three rows of infrared photo beam sensors, each row consisting of 16 sensors. Two rows were placed along the front and the side of the floor of the cage, at a 90° angle, and the third row was placed 10 cm above the floor to measure vertical activity. Photo beam sensors were spaced 2.5 cm apart. Each activity monitor was fitted in an identical sound and light attenuating box containing a weak house light and a fan.
The computer software was written using object oriented programming (LabVIEW™, National instruments, Austin, Tex., USA).
Behavioural data from each activity monitor, representing the position (horizontal center of gravity and vertical activity) of the animal at each time, were recorded at a sampling frequency of 25 Hz and collected using a custom written LABView™ application. The data from each recording session were stored and analyzed with respect to distance traveled. Each behavioural recording session lasted 60 min, starting approximately 5 min after the injection of test compound.
Compounds disclosed herein have been tested for effects on spontaneous locomotor activity in non-pre-treated Sprague-Dawley rats (based on accumulated distance traveled 0-60 min post dosing), and with doses up to 33 μmol/kg (s.c.).

[2] = tested on: monoamine transmitters (NA, DA and 5-HT); experiment: In vivo brain microdialysis of monoamines in striatum and frontal cortex; set-up: species or system rat; details: rats; for response vs control in vivo at 50 µmol/kg: Rattus norvegicus, sc
Excerpt: The microdialysis technique (See, for instance, Collin and Ungerstedt, Microdialysis: user's guide, Carnegie Medicin, Stockholm, 1988) is a well-established technique for measuring extracellular levels of neurotransmitters (Ungerstedt, J Int Med, 1991, 230; 365-73). The microdialysis technique was used to measure the effect of compounds disclosed herein upon the efflux of monoamine transmitters (NA, DA and 5-HT) in striatum and frontal cortex in conscious, freely moving rats.
Male Sprague-Dawley rats weighing 280-320 g were used throughout the experiments. Before the experiment the animals were housed in groups, maximum five animals in each cage, with free access to water and food. The animals were housed at least one week prior to surgery and use in the experiments.
A modified version (Waters et al., J Neural Transm Gen Sect, 1994, 98(1); 39-55) of the I-shaped probe (Santiago and Westerink, N-S Arch Pharmacol, 1990, 342; 407-14) with the AN69 polyacrylonitrile/sodium methyl sulfonate copolymer (HOSPAL; o.d/i.d. 310/220 μm: dialysis membrane (Gambro, Lund, Sweden) was used in the microdialysis experiments. In the dorsal striatum, probes with an exposed length of 3 mm of dialysis membrane were used and in the prefrontal cortex the corresponding length was 2.5 mm. The rats were operated under isoflurane inhalation anesthesia while mounted into a Kopf stereotaxic instrument. Coordinates were calculated relative to bregma; dorsal striatum AP+1.0, ML±2.6, DV 6.2; Pf cortex, AP 15+3.2, ML+1.2, DV −4.08°, according to Paxinos and Watson (New York, Academic Press, 1986; FIG. 8 and FIG. 14). The dialysis probe was positioned in a burr hole under stereotaxic guidance and cemented with phosphatine dental cement (DAB Dental).
The rats were housed individually in cages for 48 h before the dialysis experiments, allowing them to recover from surgery and minimizing the risk of drug interactions with the anesthetics during the following experiments. During this period the rats had free access to food and water.
On the day of the experiment the rats were connected to a micro-perfusion pump via a swivel and were replaced in the cage where they could move freely within its confinements. The perfusion medium was a Ringer's solution containing (in mmol/I): NaCl; 140, CaCl2; 1.2, KCl; 3.0, MgCl2; 1.0 (Moghaddam and Bunney. Neurochem., 1989, 53; 652-4). The pump was set to a perfusion speed of 2 μl/min and 40 μl sample volume were collected every 20 min.
The rats were perfused for at least 40 min before sampling began. Five fractions of each 20 min were collected and the last three were used for the establishment of the baseline. After collection of baseline fractions, the pharmacological challenge to the dialysis experiment started. Test compounds were administrated by injection (s.c.) in a volume of 5 ml/kg, with 0.9% NaCl (saline) as vehicle.
The analytical method were based on two chromatographic separations dedicated for amines or acids. Two chromatographic systems shared a common auto injector with a 10-port valve and two sample loops for simultaneous injection on the two systems.
The acids were separated by reversed phase chromatography while the amines were separated by reversed phase ion pairing chromatography preceded by a reverse phase separation in a column switching configuration. Three separation columns (Luna C18 (2), dp 3 μm, 2 mm i.d., Phenomenex) of different lengths were used. Electrochemical detection was accomplished on glassy carbon electrodes (MF-1000, Bioanalytical Systems, Inc.)
The aqueous mobile phase (0.6 ml/min) for the acid system contained citric acid (40 mM, dipotassium hydrogen phosphate 10 mM, methanol 8-11% (v/v) and EDTA 0.1 mM. Column length was 30 mm and detection potential relative to Ag/AgCl reference was 0.74V. […]

[3] = 50 μmol/kg s.c., striatum dialysate
[4] = 50 μmol/kg s.c., frontal cortex dialysate, read-out: DA FC ± SEM, maximum effect compared to baseline
[5] = 50 μmol/kg s.c., frontal cortex dialysate, read-out: NA FC ± SEM, maximum effect compared to baseline
[6] = 16.7 μmol/kg s.c., frontal cortex dialysate, Fumarate Salt
[7] = 16.7 μmol/kg s.c., striatum dialysate, Fumarate Salt
[8] = 50 μmol/kg s.c., frontal cortex dialysate, read-out: 5-HT FC ± SEM, maximum effect compared to baseline
[9] = 50 μmol/kg s.c., striatum dialysate, read-out: 5-HT Stri ± SEM, maximum effect compared to baseline
[10] = 50 μmol/kg s.c., striatum dialysate, read-out: DA Stri ± SEM, maximum effect compared to baseline

Row | Structure (SMILES) | melting point | response vs control in vivo at 50 µmol/kg [2, 4] | response vs control in vivo at 50 µmol/kg [2, 5] | response vs control in vivo at 50 µmol/kg [2, 8] | response vs control in vivo at 50 µmol/kg [2, 9] | response vs control in vivo at 50 µmol/kg [2, 10] | also measured
1 | Fc1cc(F)c(C(F)C2CNC2)c(F)c1.O=C(O)C(=O)O (centres unmarked) (hydrate or solvate) | 149.6 °C |  |  |  |  |  | 
2 | CCCN1CC(C(F)c2cccc(F)c2F)C1.O=C(O)C(=O)O (centres unmarked) (hydrate or solvate) | 137.4 °C |  |  |  |  |  | 
3 | CCCN1CC(C(F)c2cc(F)cc(F)c2F)C1.O=C(O)C(=O)O (centres unmarked) (hydrate or solvate) | 159 °C |  |  |  |  |  | 
4 | CCN1CC(C(F)c2cc(F)c(F)c(F)c2)C1.O=C(O)C(=O)O (centres unmarked) (hydrate or solvate) | 129.8 °C |  |  |  |  |  | 
5 | Fc1cc(F)c(F)c(C(F)C2CNC2)c1F.O=C(O)C(=O)O (centres unmarked) (hydrate or solvate) | 181.6 °C |  |  |  |  |  | 
6 | CCN1CC(C(F)c2c(F)c(F)cc(F)c2F)C1.O=C(O)C(=O)O (centres unmarked) (hydrate or solvate) | 145.9 °C |  |  |  |  |  | 
7 | Cl.Fc1cccc(C(F)C2CNC2)c1F (single isomer, unassigned; (+)) [Example 2, (+)-3-[(2,3-Difluorophenyl)(Fluoro)Methyl]Azetidine Hydrochloric Acid Salt] |  | 580 ± 223% | 394 ± 273% |  |  |  | locomotor activity, percent of control means ([1]; 11 μmol/kg s.c.): 152%; locomotor activity, percent of control means ([1]; 33 μmol/kg s.c.): 159%*; 5-HT FC ± SEM, maximum effect compared to baseline ([2]; 50 μmol/kg s.c., frontal cortex dialysate): 253 ± 92^b percent of control; 5-HT Stri ± SEM, maximum effect compared to baseline [2, 3]: 249 ± 5^b percent of control; DA Stri ± SEM, maximum effect compared to baseline [2, 3]: 149 ± 7^b percent of control; NA Stri ± SEM, maximum effect compared to baseline [2, 3]: 126 ± 7^b percent of control
8 | Fc1cc(F)cc(C(F)C2CNC2)c1.O=C(O)/C=C/C(=O)O (single isomer, unassigned; (+)) [Example 4, (+)-3-[(3,5-Difluorophenyl)(Fluoro)Methyl]Azetidine Fumarate Salt] |  |  |  |  |  |  | 5-HT FC ± SEM, maximum effect compared to baseline [2, 6]: 170^a percent of control; DA FC ± SEM, maximum effect compared to baseline [2, 6]: 226^a percent of control; NA FC ± SEM, maximum effect compared to baseline [2, 6]: 198^a percent of control; 5-HT Stri ± SEM, maximum effect compared to baseline [2, 7]: 198^a percent of control; DA Stri ± SEM, maximum effect compared to baseline [2, 7]: 116^a percent of control; NA Stri ± SEM, maximum effect compared to baseline [2, 7]: 122^a percent of control
9 | Cl.Fc1ccc(C(F)C2CNC2)cc1F (centres unmarked) [Example 5, 3-[(3,4-Difluorophenyl)(Fluoro)Methyl]Azetidine Hydrochloric Acid Salt] |  | 330 ± 75% |  | 234% | 435 ± 61% | 136 ± 4% | NA Stri ± SEM, maximum effect compared to baseline [2, 3]: 480^a percent of control
10 | Fc1cccc(F)c1C(F)C1CNC1 (centres unmarked) [Example 7, 3-[(2,6-Difluorophenyl)(Fluoro)Methyl]Azetidine Oxalate Salt] |  | 860 ± 283% | 570 ± 6% | 404 ± 21% | 213% | 130% | 
11 | Fc1ccc(C(F)C2CNC2)c(F)c1 (centres unmarked) [Example 8, 3-[(2,4-Difluorophenyl)(Fluoro)Methyl]Azetidine Oxalate Salt] |  | 549 ± 163% | 400 ± 28% | 428 ± 118% | 402 ± 12% | 133 ± 15% | 
12 | Fc1cc(F)c(F)c(C(F)C2CNC2)c1.O=C(O)C(=O)O (centres unmarked) [Example 9, 3-[Fluoro(2,3,5-Trifluorophenyl)Methyl]Azetidine Oxalate Salt] |  |  | 840 ± 122% | 207 ± 21% | 231 ± 106% | 127 ± 13% | NA Stri ± SEM, maximum effect compared to baseline [2, 3]: 860^a percent of control
13 | Fc1ccc(C(F)C2CNC2)c(F)c1F (centres unmarked) [Example 11, 3-[Fluoro(2,3,4-Trifluorophenyl)Methyl]Azetidine Oxalate Salt] |  | 263% | 342% | 236% | 366% | 85 ± 14% | 
14 | Fc1cc(C(F)C2CNC2)cc(F)c1F (centres unmarked) [Example 12, 3-[Fluoro(3,4,5-Trifluorophenyl)Methyl]Azetidine Oxalate Salt] |  | 252 ± 70% | 214 ± 28% | 322 ± 4% | 359 ± 105% | 131% | 
15 | CCN1CC(C(F)c2cccc(F)c2F)C1 (centres unmarked) [Example 16, 3-[(2,3-Difluorophenyl)(Fluoro)Methyl]-1-Ethylazetidine Hydrochloric Acid Salt] |  | 229 ± 23% | 272 ± 58% | 197 ± 124% | 313 ± 23% | 139 ± 4% | 
16 | CCN1CC(C(F)c2cc(F)cc(F)c2)C1 (centres unmarked) [Example 19, 3-[(3,5-Difluorophenyl)(Fluoro)Methyl]-1-Ethylazetidine Oxalate Salt] |  | 399 ± 30% | 354 ± 54% | 212 ± 15% | 170 ± 63% | 144 ± 10% | 
17 | CCCN1CC(C(F)c2cc(F)cc(F)c2)C1 (centres unmarked) [Example 20, 3-[(3,5-Difluorophenyl)(Fluoro)Methyl]-1-Propylazetidine Oxalate Salt] |  | 362% | 264% | 171% | 145% | 111% | 
18 | CCN1CC(C(F)c2cc(F)cc(F)c2F)C1 (centres unmarked) [Example 22, 1-Ethyl-3-[Fluoro(2,3,5-Trifluorophenyl)Methyl]Azetidine Oxalate Salt] |  | 654 ± 212% |  | 140% |  | 158% | 
